Test results published in patent US11180474B2 (BRISTOL-MYERS SQUIBB COMPANY, priority 2016, dated 2021).
Where a name gives a salt, the structure may show the parent alone.

How the values were obtained:
[1] = molecular target: T1, human TLR7 (Homo sapiens, UniProt Q9NYK1); test: TLR7 inhibition reporter assay (HEK-Blue cells, SEAP reporter, gardiquimod stimulation); assay type: cell-based; settings: HEK-Blue cells overexpressing human TLR7, gardiquimod 7.5 μM
T1 construct: host or cells: HEK-Blue cells
T1 sequence (Q9NYK1 27-1049): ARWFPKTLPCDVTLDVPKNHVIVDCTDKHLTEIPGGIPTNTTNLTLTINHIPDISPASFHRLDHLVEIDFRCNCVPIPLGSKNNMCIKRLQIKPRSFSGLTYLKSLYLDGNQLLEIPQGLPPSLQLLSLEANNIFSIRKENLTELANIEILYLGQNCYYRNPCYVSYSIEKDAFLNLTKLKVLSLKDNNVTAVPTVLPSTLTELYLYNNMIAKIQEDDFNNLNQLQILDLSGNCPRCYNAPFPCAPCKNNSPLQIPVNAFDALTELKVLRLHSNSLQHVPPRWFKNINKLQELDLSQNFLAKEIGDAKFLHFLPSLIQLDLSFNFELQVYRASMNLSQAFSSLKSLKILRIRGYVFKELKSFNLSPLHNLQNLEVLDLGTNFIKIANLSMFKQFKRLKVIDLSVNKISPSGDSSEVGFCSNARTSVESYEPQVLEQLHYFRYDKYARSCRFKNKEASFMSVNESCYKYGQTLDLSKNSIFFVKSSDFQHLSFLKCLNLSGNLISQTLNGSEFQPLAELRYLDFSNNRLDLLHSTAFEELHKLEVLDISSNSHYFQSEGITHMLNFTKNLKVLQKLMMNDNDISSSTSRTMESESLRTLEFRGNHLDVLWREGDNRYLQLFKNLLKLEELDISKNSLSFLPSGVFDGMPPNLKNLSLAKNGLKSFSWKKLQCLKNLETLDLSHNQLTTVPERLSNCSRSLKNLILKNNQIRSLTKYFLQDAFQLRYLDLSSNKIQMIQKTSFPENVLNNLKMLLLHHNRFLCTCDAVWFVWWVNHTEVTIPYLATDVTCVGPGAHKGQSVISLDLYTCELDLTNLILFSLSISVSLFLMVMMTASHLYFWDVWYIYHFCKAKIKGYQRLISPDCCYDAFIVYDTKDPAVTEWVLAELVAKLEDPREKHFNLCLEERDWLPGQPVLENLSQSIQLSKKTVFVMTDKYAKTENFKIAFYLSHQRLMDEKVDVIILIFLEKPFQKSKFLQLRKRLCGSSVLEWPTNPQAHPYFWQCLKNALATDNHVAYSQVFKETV
Description: (§1) TLR7/8/9 Inhibition Reporter Assays
Briefly, cells are seeded into Greiner 384 well plates (15000 cells per well for TLR7, 20,000 for TLR8 and 25,000 for TLR9) and then treated with test compounds in DMSO to yield a final dose response concentration range of 0.05 nM-50 μM. […] After a 22 hour incubation at 37° C., 5% CO2, SEAP levels are determined with the addition of HEK-Blue™ Detection reagent (Invivogen), a cell culture medium that allows for detection of SEAP, according to manufacturer's specifications. The percent inhibition is determined as the % reduction in the HEK-Blue signal present in wells treated with agonist plus DMSO alone compared to wells treated with a known inhibitor.

[2] = molecular target: T2, human TLR9 (Homo sapiens, UniProt Q9NR96); test: TLR9 inhibition reporter assay (HEK-Blue cells, SEAP reporter, ODN2006 stimulation); assay type: cell-based; settings: HEK-Blue cells overexpressing human TLR9, ODN2006 5 nM
T2 construct: host or cells: HEK-Blue cells
T2 sequence (Q9NR96 26-1032): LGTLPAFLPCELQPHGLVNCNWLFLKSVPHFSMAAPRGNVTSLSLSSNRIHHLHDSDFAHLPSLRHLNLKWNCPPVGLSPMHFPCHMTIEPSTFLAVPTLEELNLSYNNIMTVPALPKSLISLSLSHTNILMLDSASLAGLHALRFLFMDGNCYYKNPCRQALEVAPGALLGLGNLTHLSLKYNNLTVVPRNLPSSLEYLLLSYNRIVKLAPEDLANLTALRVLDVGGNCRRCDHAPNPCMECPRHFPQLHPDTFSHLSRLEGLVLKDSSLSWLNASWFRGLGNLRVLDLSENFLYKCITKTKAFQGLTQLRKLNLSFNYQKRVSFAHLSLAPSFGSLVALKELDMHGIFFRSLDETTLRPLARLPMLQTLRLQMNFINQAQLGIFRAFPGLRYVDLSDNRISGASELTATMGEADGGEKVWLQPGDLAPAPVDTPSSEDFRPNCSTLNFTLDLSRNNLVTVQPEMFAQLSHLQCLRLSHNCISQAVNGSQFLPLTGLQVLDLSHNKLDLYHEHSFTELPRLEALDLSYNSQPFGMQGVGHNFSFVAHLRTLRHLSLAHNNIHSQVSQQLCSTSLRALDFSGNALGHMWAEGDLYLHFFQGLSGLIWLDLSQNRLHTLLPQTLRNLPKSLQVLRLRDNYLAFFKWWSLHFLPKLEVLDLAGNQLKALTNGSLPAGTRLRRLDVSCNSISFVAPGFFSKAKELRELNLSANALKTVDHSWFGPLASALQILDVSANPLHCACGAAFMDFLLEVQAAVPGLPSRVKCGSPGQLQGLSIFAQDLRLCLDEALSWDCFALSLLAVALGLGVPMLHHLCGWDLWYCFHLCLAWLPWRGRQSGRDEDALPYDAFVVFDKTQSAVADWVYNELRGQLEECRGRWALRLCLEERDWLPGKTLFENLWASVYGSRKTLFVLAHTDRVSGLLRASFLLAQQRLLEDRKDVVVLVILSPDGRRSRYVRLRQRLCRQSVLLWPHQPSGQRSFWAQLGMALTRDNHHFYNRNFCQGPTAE
Description: as §1
HEK-Blue™-cells (Invivogen) overexpressing human TLR7, TLR8 or TLR9 receptors were used for screening inhibitors of these receptors using an inducible SEAP (secreted embryonic alkaline phosphatase) reporter gene under the control of the IFN-β minimal promoter fused to five NF-κB and AP-1-binding sites. Briefly, cells are seeded into Greiner 384 well plates (15000 cells per well for TLR7, 20,000 for TLR8 and 25,000 for TLR9) and then treated with test compounds in DMSO to yield a final dose response concentration range of 0.05 nM-50 μM. After a 30 minute compound pre-treatment at room temperature, the cells are then stimulated with a TLR7 ligand (gardiquimod at a final concentration of 7.5 μM), TLR8 ligand (R848 at a final concentration of 15.9 μM) or TLR9 ligand (ODN2006 at a final concentration of 5 nM) to activate NF-κB and AP-1 which induce the production of SEAP. After a 22 hour incubation at 37° C., 5% CO2, SEAP levels are determined with the addition of HEK-Blue™ Detection reagent (Invivogen), a cell culture medium that allows for detection of SEAP, according to manufacturer's specifications. The percent inhibition is determined as the % reduction in the HEK-Blue signal present in wells treated with agonist plus DMSO alone compared to wells treated with a known inhibitor.

Row | IC50 [1] [nM] | IC50 [2] [nM] | SMILES
1 | 2690 | 18600 | COc1ccc(-c2[nH]c3ccc(C4CCN(Cc5cccc(C(F)(F)F)c5)CC4)cc3c2C(C)C)cc1OC [Example 269, 2-(3,4-dimethoxyphenyl)-3-isopropyl-5-(1-(3-(trifluoromethyl)benzyl)piperidin-4-yl)-1H-indole]
2 | 180 | ≥ 50000 | CCC(CC)CN1CCC(c2ccc3[nH]c(-c4ccc(OC)c(OC)c4)c(C(C)C)c3c2)CC1 [Example 265, 2-(3,4-dimethoxyphenyl)-5-(1-(2-ethylbutyl)piperidin-4-yl)-3-isopropyl-1H-indole]
3 | 180 | 5760 | COc1ccc(-c2[nH]c3ccc(C4CCN(Cc5nccs5)CC4)cc3c2C(C)C)cc1OC [Example 261, 2-((4-(2-(3,4-dimethoxyphenyl)-3-isopropyl-1H-indol-5-yl)piperidin-1-yl)methyl)thiazole]
4 | 175 | 543 | COc1ccc(-c2[nH]c3ccc(C4CCN(CCN)CC4)cc3c2C)cc1OC [Example 100, 2-(4-(2-(3,4-dimethoxyphenyl)-3-methyl-1H-indol-5-yl)piperidin-1-yl)ethan-1-amine]
5 | 2680 | 1430 | COc1ccc(-c2[nH]c3ccc(C4CCN(Cc5ccc6ccccc6n5)CC4)cc3c2C)cc1OC [Example 35, 2-((4-(2-(3,4-dimethoxyphenyl)-3-methyl-1H-indol-5-yl)piperidin-1-yl)methyl)quinoline]
6 | 677 | 291 | COc1ccc(-c2[nH]c3ccc(C4CCN(C5CCCN(CC(C)C)C5)CC4)cc3c2C)cc1OC (stereo not drawn) [Example 416, 2-(3,4-dimethoxyphenyl)-5-(1′-isobutyl-[1,3′-bipiperidin]-4-yl)-3-methyl-1H-indole]
7 | 1590 | 555 | COc1ccc(-c2[nH]c3ccc(C4CCN(C5CCN(C6CCC6)CC5)CC4)cc3c2C)cc1OC [Example 61, 5-(1′-cyclobutyl-[1,4′-bipiperidin]-4-yl)-2-(3,4-dimethoxyphenyl)-3-methyl-1H-indole]
8 | 248 | 4850 | COc1ccc(-c2[nH]c3ccc(C4CCN(C(=O)CN(C)C)CC4)cc3c2C2CCOCC2)cc1OC [Example 393, 1-(4-(2-(3,4-dimethoxyphenyl)-3-(tetrahydro-2H-pyran-4-yl)-1H-indol-5-yl)piperidin-1-yl)-2-(dimethylamino)ethan-1-one]
9 | 907 | 247 | COc1ccc(-c2[nH]c3ccc(C4CCN(C5CCN(CC(C)C)C5)CC4)cc3c2C)cc1OC (stereo not drawn) [Example 85, 2-(3,4-dimethoxyphenyl)-5-(1-(1-isobutylpyrrolidin-3-yl)piperidin-4-yl)-3-methyl-1H-indole]
10 | 10500 | 2550 | COc1ccc(-c2[nH]c3ccc(C4CCN(Cc5ccc(N(C)C)c6ccccc56)CC4)cc3c2C)cc1OC [Example 19, 4-((4-(2-(3,4-dimethoxyphenyl)-3-methyl-1H-indol-5-yl)piperidin-1-yl)methyl)-N,N-dimethylnaphthalen-1-amine]
11 | 938 | 1020 | COc1ccc(-c2[nH]c3ccc(C4CCN(CCNC(=O)OC(C)(C)C)CC4)cc3c2C)cc1OC [Example 99, tert-butyl (2-(4-(2-(3,4-dimethoxyphenyl)-3-methyl-1H-indol-5-yl)piperidin-1-yl)ethyl)carbamate]
12 | 1710 | 447 | COc1ccc(-c2[nH]c3ccc(C4CCN(CCCO)CC4)cc3c2C)cc1OC [Example 5, 3-(4-(2-(3,4-dimethoxyphenyl)-3-methyl-1H-indol-5-yl)piperidin-1-yl)propan-1-ol]
13 | 1120 | 288 | COc1ccc(-c2[nH]c3ccc(C4CCN(CCN(C)CC(C)C)CC4)cc3c2C)cc1OC [Example 110, N-(2-(4-(2-(3,4-dimethoxyphenyl)-3-methyl-1H-indol-5-yl)piperidin-1-yl)ethyl)-N,2-dimethylpropan-1-amine]
14 | 687 | 120 | COc1ccc(-c2[nH]c3ccc(C4CCN(Cc5ccc(N6CCN(C)CC6)cc5)CC4)cc3c2C)cc1OC [Example 42, 2-(3,4-dimethoxyphenyl)-3-methyl-5-(1-(4-(4-methylpiperazin-1-yl)benzyl)piperidin-4-yl)-1H-indole]
15 | 2130 | 1070 | COc1ccc(-c2[nH]c3ccc(C4CCN(CCN(C)C)CC4)cc3c2C)cc1OC [Example 415, 2-(4-(2-(3,4-dimethoxyphenyl)-3-methyl-1H-indol-5-yl)piperidin-1-yl)-N,N-dimethylethan-1-amine]
16 | 387 | 1510 | CCN(C)CCN1CCC(c2ccc3[nH]c(-c4ccc(OC)c(OC)c4)c(C)c3c2)CC1 [Example 111, 2-(4-(2-(3,4-dimethoxyphenyl)-3-methyl-1H-indol-5-yl)piperidin-1-yl)-N-ethyl-N-methylethan-1-amine]
17 | 1340 | 882 | CNCCN1CCC(c2ccc3[nH]c(-c4ccc(OC)c(OC)c4)c(CC4CC4)c3c2)CC1 [Example 117, 2-(4-(3-(cyclopropylmethyl)-2-(3,4-dimethoxyphenyl)-1H-indol-5-yl)piperidin-1-yl)-N-methylethanamine di-trifluoroacetic acid]
18 | – | 5910 | COc1ccc(-c2[nH]c3ccc(C4CCNCC4)cc3c2C)cc1OC [Example 1, 2-(3,4-dimethoxyphenyl)-3-methyl-5-(piperidin-4-yl)-1H-indole hydrochloride]
19 | – | 1970 | COc1ccc(-c2[nH]c3ccc(C4CCN(Cc5nccn5C)CC4)cc3c2C)cc1OC [Example 16, 2-(3,4-dimethoxyphenyl)-3-methyl-5-(1-((1-methyl-1H-imidazol-2-yl)methyl)piperidin-4-yl)-1H-indole]
